Reference: patent US6342261B1, “Method of preserving foods using noble gases” (American Air Liquide, priority 1992, dated 2002)
Values joined by “and” are separate entries in the source; they are usually repeats but may differ in a detail not shown here. Equal entries are not always repeated.

Assays:
Yeasts = experiment: Total microorganisms from product trials: yeasts; type: cell-based
Description: (§1) Many different products were assayed under a wide variety of temperatures and pressures, packaging treatments, and post-packaging handling. In the general experiment, sterile pouches of impermeable film were filled with freshly-obtained food products under recommended handling regimes. Each was then purged thoroughly with the gas mixture to be tested. Then sealed, the pouch was further treated by cooking, cold storage, or other parameter, or else was not. The sealed pouch was stored at room, cold, or freezing temperature, and periodically sampled for microorganism counts (total, aerobic, anaerobic, Pseudomonas, Lactobacilli). It was also studied for observable deterioration and scored. Some samples were subjected to appropriate chemical analysis. Others were sampled for specific enzyme activities as above. All told, the average experiment consisted of replicate samples of product being assayed for microbial counts, microbial identifications, enyzme activities, chemical oxidation, discoloration, odor and/or taste changes, and final carbon dioxide and oxygen concentrations. Microbes and enzymes known to be important in the degradation of each individual product were selected for examination and scoring from the literature.

Molds = experiment: Total microorganisms from product trials: molds; type: cell-based
Description: as §1

[1] = molecular target: Gamma-glutamyl transpeptidase EC 2.3.2.2 (Homo sapiens, UniProt P19440); experiment: Enzyme activity under gas: gamma-glutamyl transpeptidase; type: biochemical
Description: (§2) Sealed cuvettes containing enzymes representative of and in fact important in food product degradation processes were thoroughly purged and filled with assay gases. Injection of gassed substrate solutions started the reactions, which were generally conducted under optimal conditions. These were monitored […] by scanning uv/vis spectrophotometry. All controls were conducted for oxygen, nitrogen and carbon dioxide. A range of temperatures and pressures were employed. An example protocol is appended. Results were expressed in real-time, and transformed to calculate yield and rate differences for the reaction. Over 50 exemplary enzymes were so assayed. Enzymes selected for examination from various products are assayed in precisely the same manner, but always in terms of relative activity in comparison with that product in air or another control gas or gas mixture.
(§3) The follwing Table summarizes the maximum inhibition of enzymes activity realized with various noble gases under various storage conditions.

[2] = tested on: Acetyl-CoA synthetase EC 6.2.1.1; experiment: Enzyme activity under gas: acetyl-CoA synthetase; type: biochemical
Description: as §2, §3

[3] = molecular target: Glucose oxidase EC 1.1.3.4 (Aspergillus niger, UniProt P13006); experiment: Enzyme activity under gas: glucose oxidase; type: biochemical
Description: as §2, §3

[4] = tested on: Aspartate aminotransferase (EC 2.6.1.1); experiment: Enzyme activity under gas: aspartate aminotransferase; type: biochemical
Description: as §2, §3

Anaerobes = experiment: Total microorganisms from product trials: anaerobes; type: cell-based
Description: as §1

Aerobes = experiment: Total microorganisms from product trials: aerobes; type: cell-based
Description: as §1

[5] = tested on: Class V. Isomerases (EC 5); experiment: Enzyme activity under gas: Class V isomerases (enzyme not named); type: biochemical
Description: as §2, §3

Lipase EC 3.1.1.3 = experiment: Enzyme activity under gas: lipase; type: biochemical
Description: as §2, §3

Tyrosinase EC 1.14.18.1 = experiment: Enzyme activity under gas: tyrosinase; type: biochemical; conditions: 25°, optimal reaction conditions, simple saturation of solution with gas
Description: as §2, §3
at 25° and optimal reaction conditions, simple saturation of solution with gas: […]

Yeasts and molds = experiment: Yeast and mold growth on bread and pasta under gases; type: cell-based
Description: as §1, with “concentrations.” for “concentrations. Microbes and enzymes known to be important in the degradation of each individual product were selected for examination and scoring from the literature.”

[6] = Chemical oxidation reactions of food components under gases; conditions: even in the presence of oxygen; pigments, phenolics, ascorbic acid of the product section
Source text: Other oxygenated species, such as carbon dioxide are reactively destructive.
That is, in accordance with the present invention, it has been discovered that certain gases can directly affect the oxidation rate of chemicals and not merely slow oxidation only as function of physical and inert displacement of oxygen. Generally, the present invention is effected by contacting the chemicals or chemical preparations during at least a protion of storage thereof to a noble gas, a mixture of noble gases or a gaseous mixture containing at least one noble gas.

Phosphoglucose isomerase = Phosphoglucose isomerase (Homo sapiens, UniProt P06744); experiment: Enzyme activity under gas: phosphoglucose isomerase; type: biochemical
Description: as §2, §3

Glucose oxidase EC 1.1.3.4, sequence (P13006 17-605): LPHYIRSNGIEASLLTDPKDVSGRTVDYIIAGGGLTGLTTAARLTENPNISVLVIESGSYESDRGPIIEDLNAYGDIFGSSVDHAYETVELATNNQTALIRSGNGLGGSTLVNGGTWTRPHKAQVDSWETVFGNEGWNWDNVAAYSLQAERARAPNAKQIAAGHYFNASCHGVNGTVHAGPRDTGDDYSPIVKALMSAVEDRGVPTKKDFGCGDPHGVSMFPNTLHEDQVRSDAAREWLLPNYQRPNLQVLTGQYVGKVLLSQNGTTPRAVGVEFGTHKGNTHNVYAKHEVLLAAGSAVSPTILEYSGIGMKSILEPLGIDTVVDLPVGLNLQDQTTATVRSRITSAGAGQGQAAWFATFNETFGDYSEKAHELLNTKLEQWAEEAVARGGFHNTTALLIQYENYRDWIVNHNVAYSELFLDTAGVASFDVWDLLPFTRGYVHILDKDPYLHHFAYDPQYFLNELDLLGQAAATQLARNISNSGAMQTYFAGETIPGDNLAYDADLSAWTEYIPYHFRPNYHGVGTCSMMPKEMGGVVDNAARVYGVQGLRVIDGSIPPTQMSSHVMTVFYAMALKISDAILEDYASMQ
Gamma-glutamyl transpeptidase EC 2.3.2.2, sequence (P19440 whole entry): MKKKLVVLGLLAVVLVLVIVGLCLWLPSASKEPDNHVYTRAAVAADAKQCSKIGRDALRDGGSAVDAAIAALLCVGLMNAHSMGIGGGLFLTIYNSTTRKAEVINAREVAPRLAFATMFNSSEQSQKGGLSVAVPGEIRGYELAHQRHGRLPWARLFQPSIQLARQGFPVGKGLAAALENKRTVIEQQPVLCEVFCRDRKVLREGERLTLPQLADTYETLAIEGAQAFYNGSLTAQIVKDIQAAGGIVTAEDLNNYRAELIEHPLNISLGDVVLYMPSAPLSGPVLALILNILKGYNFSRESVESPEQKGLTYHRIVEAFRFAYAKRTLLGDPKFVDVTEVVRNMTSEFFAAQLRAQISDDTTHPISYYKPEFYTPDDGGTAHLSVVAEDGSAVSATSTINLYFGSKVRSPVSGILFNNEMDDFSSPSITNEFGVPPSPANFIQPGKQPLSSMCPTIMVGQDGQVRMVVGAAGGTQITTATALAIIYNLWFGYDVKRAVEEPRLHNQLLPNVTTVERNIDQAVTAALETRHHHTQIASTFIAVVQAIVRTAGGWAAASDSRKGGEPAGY

## [Ar] [Ar, argon]
Yeasts; Carrots
  % Inhibition Compared to 100% Air: 49%
Yeasts; Fish Fillets
  % Inhibition Compared to 100% Air: 35%
Yeasts; Green Beans, Refrigerated
  % Inhibition Compared to 100% Air: 20%
Yeasts; Green Beans, Room Temperature
  % Inhibition Compared to 100% Air: 10%
Yeasts; Ground Beef
  % Inhibition Compared to 100% Air: 28%
Yeasts; Lettuce
  % Inhibition Compared to 100% Air: 28%
Yeasts; Mixed Salad (Chef Salad)
  % Inhibition Compared to 100% Air: 47%
Yeasts; Shrimp
  % Inhibition Compared to 100% Air: 2%
Yeasts; Smelt
  % Inhibition Compared to 100% Air: 17%
Yeasts; Steaks
  % Inhibition Compared to 100% Air: 16%
Yeasts; Strawberries
  % Inhibition Compared to 100% Air: 12%
Yeasts; Tomatoes
  % Inhibition Compared to 100% Air: 38%
Molds; Carrots
  % Inhibition Compared to 100% Air: 20%
Molds; Fish Fillets
  % Inhibition Compared to 100% Air: 15%
Molds; Green Beans, Refrigerated
  % Inhibition Compared to 100% Air: 25%
Molds; Green Beans, Room Temperature
  % Inhibition Compared to 100% Air: 15%
Molds; Ground Beef
  % Inhibition Compared to 100% Air: 4%
Molds; Lettuce
  % Inhibition Compared to 100% Air: 4%
Molds; Mixed Salad (Chef Salad)
  % Inhibition Compared to 100% Air: 2%
Molds; Shrimp
  % Inhibition Compared to 100% Air: 5%
Molds; Smelt
  % Inhibition Compared to 100% Air: 22%
Molds; Steaks
  % Inhibition Compared to 100% Air: 27%
Molds; Strawberries
  % Inhibition Compared to 100% Air: 80%
Molds; Tomatoes
  % Inhibition Compared to 100% Air: 51%
[1]
  Result (inhibition), maximum inhibition of enzyme activity: −5%
[2]
  Result: −75%
[3]
  Result (inhibition), maximum inhibition of enzyme activity: −85.8%
[4]
  Result (inhibition), maximum inhibition of enzyme activity: −17%
Anaerobes; Carrots
  % Inhibition Compared to 100% CO2: 9%
Anaerobes; Fish Fillets
  % Inhibition Compared to 100% CO2: 2%
Anaerobes; Green Beans, Refrigerated
  % Inhibition Compared to 100% CO2: 61%
Anaerobes; Ground Beef
  % Inhibition Compared to 100% CO2: 16%
Anaerobes; Lettuce
  % Inhibition Compared to 100% Air: 16%
Anaerobes; Mixed Salad (Chef Salad)
  % Inhibition Compared to 100% CO2: 6% and 1%
Anaerobes; Shrimp
  % Inhibition Compared to 100% CO2: 4%
Anaerobes; Smelt
  % Inhibition Compared to 100% CO2: 30%
Anaerobes; Steaks
  % Inhibition Compared to 100% CO2: 6%
Anaerobes; Tomatoes
  % Inhibition Compared to 100% CO2: 22%
Aerobes; Carrots
  % Inhibition Compared to 100% Air: 33%
Aerobes; Fish Fillets
  % Inhibition Compared to 100% Air: 13%
Aerobes; Green Beans, Refrigerated
  % Inhibition Compared to 100% Air: 11%
Aerobes; Green Beans, Room Temperature
  % Inhibition Compared to 100% Air: 2%
Aerobes; Ground Beef
  % Inhibition Compared to 100% Air: 0.4%
Aerobes; Lettuce
  % Inhibition Compared to 100% Air: 0.4%
Aerobes; Mixed Salad (Chef Salad)
  % Inhibition Compared to 100% Air: 12%
Aerobes; Shrimp
  % Inhibition Compared to 100% Air: 1%
Aerobes; Steaks
  % Inhibition Compared to 100% Air: 13%
Aerobes; Strawberries
  % Inhibition Compared to 100% Air: 40%
Aerobes; Tomatoes
  % Inhibition Compared to 100% Air: 96%
[5]
  Result, Class V isomerases: −37%
Lipase EC 3.1.1.3
  Result, With Lipase: −18%
  inhibition (up to): up to −20%
Tyrosinase EC 1.14.18.1
  Result (inhibition vs air), maximum inhibition of enzyme activity: −60%

## O=C=O [CO2, carbon dioxide, reference compound]
Yeasts; Carrots
  % Inhibition Compared to 100% Air: 35%
Yeasts; Fish Fillets
  % Inhibition Compared to 100% Air: 36%
Yeasts; Green Beans, Refrigerated
  % Inhibition Compared to 100% Air: 55%
Yeasts; Green Beans, Room Temperature
  % Inhibition Compared to 100% Air: 19%
Yeasts; Ground Beef
  % Inhibition Compared to 100% Air: 4%
Yeasts; Lettuce
  % Inhibition Compared to 100% Air: 4%
Yeasts; Mixed Salad (Chef Salad)
  % Inhibition Compared to 100% Air: 63%
Yeasts; Shrimp
  % Inhibition Compared to 100% Air: 8%
Yeasts; Smelt
  % Inhibition Compared to 100% Air: 0.8%
Yeasts; Steaks
  % Inhibition Compared to 100% Air: 15%
Yeasts; Strawberries
  % Inhibition Compared to 100% Air: 32%
Yeasts; Tomatoes
  % Inhibition Compared to 100% Air: 80%
Yeasts and molds; Bread
  depression of yeasts and molds with respect to nitrogen or air: may be superior
Yeasts and molds; Pasta
  depression of yeasts and molds with respect to nitrogen or air: may be superior
Molds; Carrots
  % Inhibition Compared to 100% Air: 3%
Molds; Fish Fillets
  % Inhibition Compared to 100% Air: 18%
Molds; Green Beans, Refrigerated
  % Inhibition Compared to 100% Air: 2%
Molds; Green Beans, Room Temperature
  % Inhibition Compared to 100% Air: 3%
Molds; Ground Beef
  % Inhibition Compared to 100% Air: 2%
Molds; Lettuce
  % Inhibition Compared to 100% Air: 2%
Molds; Mixed Salad (Chef Salad)
  % Inhibition Compared to 100% Air: 4%
Molds; Shrimp
  % Inhibition Compared to 100% Air: 2%
Molds; Smelt
  % Inhibition Compared to 100% Air: 29%
Molds; Steaks
  % Inhibition Compared to 100% Air: 17%
Molds; Strawberries
  % Inhibition Compared to 100% Air: 100%
Molds; Tomatoes
  % Inhibition Compared to 100% Air: 62%
Aerobes; Carrots
  % Inhibition Compared to 100% Air: 24%
Aerobes; Fish Fillets
  % Inhibition Compared to 100% Air: 14%
Aerobes; Green Beans, Refrigerated
  % Inhibition Compared to 100% Air: 26%
Aerobes; Green Beans, Room Temperature
  % Inhibition Compared to 100% Air: 10%
Aerobes; Ground Beef
  % Inhibition Compared to 100% Air: 9%
Aerobes; Lettuce
  % Inhibition Compared to 100% Air: 9%
Aerobes; Mixed Salad (Chef Salad)
  % Inhibition Compared to 100% Air: 2%
Aerobes; Shrimp
  % Inhibition Compared to 100% Air: 4%
Aerobes; Steaks
  % Inhibition Compared to 100% Air: 21%
Aerobes; Strawberries
  % Inhibition Compared to 100% Air: 48%
Aerobes; Tomatoes
  % Inhibition Compared to 100% Air: 92%
Tyrosinase EC 1.14.18.1
  Result (inhibition vs air), maximum inhibition of enzyme activity: 0%

## N#N [Gas N2, nitrogen, reference compound]
[6]
  inhibition of chemical oxidation, order of effect of the gases: has no such ability
Tyrosinase EC 1.14.18.1
  Result (inhibition vs air), maximum inhibition of enzyme activity: 0%

## [Kr] [Kr, krypton]
[1]
  Result (inhibition), maximum inhibition of enzyme activity: −8%
[2]
  Result: −16%
[3]
  Result (inhibition), maximum inhibition of enzyme activity: −92.7%
[4]
  Result (inhibition), maximum inhibition of enzyme activity: −82%
Lipase EC 3.1.1.3
  Result, With Lipase: −25%
Tyrosinase EC 1.14.18.1
  Result (inhibition vs air), maximum inhibition of enzyme activity: −73%

## [Ne] [Ne, neon]
Phosphoglucose isomerase
  Result: −45%
[1]
  Result (inhibition), maximum inhibition of enzyme activity: −3%
[2]
  Result: −15%
[3]
  Result (inhibition), maximum inhibition of enzyme activity: −61.7%
[4]
  Result (inhibition), maximum inhibition of enzyme activity: −12%
Lipase EC 3.1.1.3
  Result, With Lipase: −15%
Tyrosinase EC 1.14.18.1
  Result (inhibition vs air), maximum inhibition of enzyme activity: −46.7%

## [Xe] [Xe, xenon]
Phosphoglucose isomerase
  Result: −61%
[1]
  Result (inhibition), maximum inhibition of enzyme activity: −7% (inhibition)
[2]
  Result: −18%
[3]
  Result (inhibition), maximum inhibition of enzyme activity: −91.6% (inhibition)
[4]
  Result (inhibition), maximum inhibition of enzyme activity: −17% (inhibition)
Lipase EC 3.1.1.3
  Result, With Lipase: −25.6%
